Here are results for 1 compound from BindingDB's records for PubMed 37122541 (Emory University, 2023).

For this experiment, the target named is rRNA adenine N-6-methyltransferase ErmC (Staphylococcus aureus). The experiment is described as follows: Inhibition of Staphylococcus aureus ErmC methyltransferase.

A word on the IC50: it is the concentration that inhibits the measured activity by half. The low end stands for inhibition by little substance, the high end for a need for much substance. In the case of `CC(C)c1ccc(NC(=S)N/N=C/c2cc(Cl)cc(Cl)c2O)cc1`, half-maximal inhibition (IC50) was put at 450 nM. This lies in the sub-micromolar range.
